Values after ≈ are worked out from the molar mass of the structure shown.

What all share (type): functional
Experiment [1] has as its system Candida albicans. Put plainly: Antifungal activity against Candida albicans after 48 hrs by disc diffusion method. (In agar diffusion tests the substance spreads into inoculated agar from a disc or well.)
In experiment [2] the test system is Staphylococcus aureus. The experiment is described as follows: Antibacterial activity against Staphylococcus aureus ATCC 25923 after 24 hrs by disc diffusion method.
Experiment [3] relates to Escherichia coli. Put plainly: Antibacterial activity against Escherichia coli ATCC 11230 by microdilution broth method.
The subject of experiment [4] is Bacillus cereus. The experiment is described as follows: Antibacterial activity against Bacillus cereus ATCC […] by microdilution broth method. A general note: Broth dilution looks for growth in wells or tubes with falling amounts of substance.
Experiment [5] concerns Candida albicans. Put plainly: Antifungal activity against Candida albicans by microdilution broth method.
For experiment [6], the system named is Escherichia coli. The experiment is described as follows: Antibacterial activity against Escherichia coli ATCC 11230 after 24 hrs by disc diffusion method.
For experiment [7], the system named is Listeria monocytogenes. The experiment is described as follows: Antibacterial activity against Listeria monocytogenes Li6 isolate by microdilution broth method.
The test system of experiment [8] is Staphylococcus aureus. The experiment is described as follows: Antibacterial activity against Staphylococcus aureus ATCC 25923 by microdilution broth method.
The subject of experiment [9] is Listeria monocytogenes. Put plainly: Antibacterial activity against Listeria monocytogenes Li6 isolate after 24 hrs by disc diffusion method.
Experiment [10] has as its system Bacillus cereus. Put plainly: Antibacterial activity against Bacillus cereus ATCC […] after 24 hrs by disc diffusion method.
Experiment [11] deals with Escherichia coli. Put plainly: Antibacterial activity against Escherichia coli ATCC 11230 at 10 ug after 24 hrs by disc diffusion method. The following applies: ATCC 11230, 24 h, read-out: IZ.
Experiment [12] has as its system Candida albicans. The experiment is described as follows: Antifungal activity against Candida albicans at 50 ug after 48 hrs by disc diffusion method. To be noted: read-out: IZ.
The subject of experiment [13] is Bacillus cereus. Put plainly: Antibacterial activity against Bacillus cereus ATCC […] at 1 ug after 24 hrs by disc diffusion method. The following applies: read-out: IZ.
The subject of experiment [14] is Staphylococcus aureus. Put plainly: Antibacterial activity against Staphylococcus aureus ATCC 25923 at 10U by disc diffusion method.

`CCCS(=O)(=O)NCCCNS(=O)(=O)CCC`: the “inhibition zone (IZ)” value in the experiment with Candida albicans [1] stood at 12 mm; with Staphylococcus aureus [2], 11 mm; with Escherichia coli [6], 12 mm; with Listeria monocytogenes [9], 11 mm. Further, the MIC (as a rule, the lowest concentration found to suppress growth) against Escherichia coli [3] was found to be 228 µg/mL (≈ 796 µM); in the experiment with Bacillus cereus [4], 380 µg/mL (≈ 1330 µM); against Candida albicans [5], 532 µg/mL (≈ 1860 µM); with Listeria monocytogenes [7], 532 µg/mL (≈ 1860 µM); in the experiment on Staphylococcus aureus [8], 456 µg/mL (≈ 1590 µM).
`CCCS(=O)(=O)NCCCCNS(=O)(=O)CCC`: the MIC against Escherichia coli [3] was 240 µg/mL (≈ 799 µM); in the experiment on Bacillus cereus [4], 336 µg/mL (≈ 1120 µM); against Candida albicans [5], 336 µg/mL (≈ 1120 µM); in the experiment on Listeria monocytogenes [7], 228 µg/mL (≈ 759 µM); against Staphylococcus aureus [8], 336 µg/mL (≈ 1120 µM). Besides, the “inhibition zone (IZ)” value in the experiment on Escherichia coli [6] was found to be 12 mm.
`CCCCS(=O)(=O)NCCNS(=O)(=O)CCCC`: the MIC was 243 µg/mL (≈ 809 µM) against Escherichia coli [3]; 243 µg/mL (≈ 809 µM) in the experiment with Bacillus cereus [4]; 324 µg/mL (≈ 1080 µM) in the experiment on Candida albicans [5]; 216 µg/mL (≈ 719 µM) against Listeria monocytogenes [7]; 216 µg/mL (≈ 719 µM) in the experiment on Staphylococcus aureus [8]. The “inhibition zone (IZ)” value with Escherichia coli [6] is 10 mm.
As for `CCCCS(=O)(=O)NCCCNS(=O)(=O)CCCC`, the “inhibition zone (IZ)” value in the experiment on Candida albicans [1] stood at 10 mm; in the experiment with Escherichia coli [6], 10 mm; with Bacillus cereus [10] it was 10 mm; with Listeria monocytogenes [9], 11 mm. In addition, the minimum inhibitory concentration (MIC) against Escherichia coli [3] came out at 225 µg/mL (≈ 715 µM); in the experiment on Bacillus cereus [4], 180 µg/mL (≈ 572 µM); with Candida albicans [5], 315 µg/mL (≈ 1000 µM); in the experiment with Listeria monocytogenes [7] it was 225 µg/mL (≈ 715 µM); in the experiment with Staphylococcus aureus [8] it was 270 µg/mL (≈ 859 µM).
Take `CCCCS(=O)(=O)NCCCCCNS(=O)(=O)CCCC`: the “inhibition zone (IZ)” value in the experiment on Candida albicans [1] is given as 13 mm; in the experiment with Escherichia coli [6] it was 12 mm. For the same compound, the MIC in the experiment with Escherichia coli [3] stood at 486 µg/mL (≈ 1420 µM); with Bacillus cereus [4] it was 540 µg/mL (≈ 1580 µM); in the experiment with Candida albicans [5], 540 µg/mL (≈ 1580 µM); against Listeria monocytogenes [7], 432 µg/mL (≈ 1260 µM); against Staphylococcus aureus [8], 432 µg/mL (≈ 1260 µM).
For the compound `CCCCS(=O)(=O)NCCCCNS(=O)(=O)CCCC`, the “inhibition zone (IZ)” value in the experiment with Candida albicans [1] was 12 mm; in the experiment with Staphylococcus aureus [2], 10 mm; in the experiment on Escherichia coli [6], 11 mm. For the same compound, the MIC amounted to 555 µg/mL (≈ 1690 µM) in the experiment on Escherichia coli [3]; 463 µg/mL (≈ 1410 µM) against Bacillus cereus [4]; 555 µg/mL (≈ 1690 µM) in the experiment with Candida albicans [5]; 648 µg/mL (≈ 1970 µM) in the experiment on Listeria monocytogenes [7]; 648 µg/mL (≈ 1970 µM) in the experiment with Staphylococcus aureus [8].
For the compound `CCCS(=O)(=O)NCCNS(=O)(=O)CCC`, the results for the “inhibition zone (IZ)” value in the experiment on Staphylococcus aureus [2], with Escherichia coli [6] and in the experiment on Listeria monocytogenes [9] were 12 mm, 11 mm and 16 mm, respectively. Also, the MIC amounted to 150 µg/mL (≈ 551 µM) against Escherichia coli [3]; 250 µg/mL (≈ 918 µM) in the experiment on Bacillus cereus [4]; 300 µg/mL (≈ 1100 µM) in the experiment on Candida albicans [5]; 300 µg/mL (≈ 1100 µM) against Listeria monocytogenes [7]; 300 µg/mL (≈ 1100 µM) with Staphylococcus aureus [8].
For the compound `CC1(C)S[C@@H]2[C@H](NC(=O)[C@H](N)c3ccccc3)C(=O)N2[C@H]1C(=O)O` [AMPICILLIN], the zone of inhibition at 10 µg/disc in the experiment on Escherichia coli [11] turned out to be 9 mm.
In the case of `CC(=O)N1CCN(c2ccc(OC[C@H]3CO[C@](Cn4ccnc4)(c4ccc(Cl)cc4Cl)O3)cc2)CC1` [KETOCONAZOLE], in the experiment with Candida albicans [12], the zone of inhibition at 50 µg/disc is 16 mm.
As to `Cc1onc(-c2ccccc2)c1C(=O)N[C@@H]1C(=O)N2[C@@H]1SC(C)(C)[C@@H]2C(=O)O` [OXACILLIN], in the experiment with Bacillus cereus [13], the zone of inhibition at 1 µg/disc worked out at 9 mm.
With `CC1(C)S[C@@H]2[C@H](NC(=O)Cc3ccccc3)C(=O)N2[C@H]1C(=O)O` [PENICILLIN G], in the experiment on Staphylococcus aureus [14], the “inhibition zone (IZ)” value is reported as 19 mm.

These data come from ChEMBL document CHEMBL1149607, “Synthesis, characterization and antimicrobial activity of new aliphatic sulfonamide” (2007).
